In PMC12028158, “Synthesis and In Vitro Evaluation of the Anticancer Effect of Novel Phosphonium Vindoline Derivatives” (International Journal of Molecular Sciences, 2025):
Read-outs that look alike come from different tables or passages of the source.

Legend:
Type in all cases: cell-based
MOLT-4 = experiment: NCI60 five-dose screen; settings: Homo sapiens
RPMI-8226 = experiment: NCI60 five-dose screen; settings: Homo sapiens
HOP-92 = experiment: NCI60 five-dose screen; settings: Homo sapiens
NCI-H226 [1] = experiment: NCI60 five-dose screen; settings: Homo sapiens
NCI-H460 = experiment: NCI60 five-dose screen; settings: Homo sapiens
COLO 205 = experiment: NCI60 five-dose screen; settings: Homo sapiens
HCC-2998 = experiment: NCI60 five-dose screen; settings: Homo sapiens
HT29 [2] = experiment: NCI60 five-dose screen; settings: Homo sapiens, HT-29
SW-620 = experiment: NCI60 five-dose screen; settings: Homo sapiens
UACC-62 = experiment: NCI60 five-dose screen; settings: Homo sapiens
OVCAR-4 = experiment: NCI60 five-dose screen; settings: Homo sapiens
OVCAR-5 [3] = experiment: NCI60 five-dose screen; settings: Homo sapiens
786-0 = experiment: NCI60 five-dose screen; settings: Homo sapiens
A498 [4] = experiment: NCI60 five-dose screen; settings: Homo sapiens
CAKI-1 [5] = experiment: NCI60 five-dose screen; settings: Homo sapiens
RXF 393 [6] = experiment: NCI60 five-dose screen; settings: Homo sapiens
DU-145 [7] = experiment: NCI60 five-dose screen; settings: Homo sapiens
HS 578T = experiment: NCI60 five-dose screen; settings: Homo sapiens
BT-549 [8] = experiment: NCI60 five-dose screen; settings: Homo sapiens
CNS Cancer panel = experiment: NCI60 five-dose screen, panel mean; settings: Homo sapiens
Breast Cancer panel = experiment: NCI60 five-dose screen, panel mean; settings: Homo sapiens
HL-60(TB) = experiment: NCI60 one-dose screen; settings: Homo sapiens
EKVX = experiment: NCI60 one-dose screen; settings: Homo sapiens, read-out: Growth percent
HOP-62 = experiment: NCI60 one-dose screen; settings: Homo sapiens
NCI-H226 [9] = experiment: NCI60 one-dose screen; settings: Homo sapiens
HCT-116 = experiment: NCI60 one-dose screen; settings: Homo sapiens
HCT-15 = experiment: NCI60 one-dose screen; settings: Homo sapiens
HT29 [10] = experiment: NCI60 one-dose screen; settings: Homo sapiens
U251 = experiment: NCI60 one-dose screen; settings: Homo sapiens
LOX IMVI = experiment: NCI60 one-dose screen; settings: Homo sapiens, read-out: Growth percent
OVCAR-3 = experiment: NCI60 one-dose screen; settings: Homo sapiens
OVCAR-5 [11] = experiment: NCI60 one-dose screen; settings: Homo sapiens, OVCAR-5, read-out: Growth percent
NCI/ADR-RES = experiment: NCI60 one-dose screen; settings: Homo sapiens, read-out: Growth percent
A498 [12] = experiment: NCI60 one-dose screen; settings: Homo sapiens
ACHN = experiment: NCI60 one-dose screen; settings: Homo sapiens, read-out: Growth percent
CAKI-1 [13] = experiment: NCI60 one-dose screen; settings: Homo sapiens
RXF 393 [14] = experiment: NCI60 one-dose screen; settings: Homo sapiens
UO-31 = experiment: NCI60 one-dose screen; settings: Homo sapiens
PC-3 = experiment: NCI60 one-dose screen; settings: Homo sapiens
DU-145 [15] = experiment: NCI60 one-dose screen; settings: Homo sapiens
MDA-MB-231/ATCC = experiment: NCI60 one-dose screen; settings: Homo sapiens
BT-549 [16] = experiment: NCI60 one-dose screen; settings: Homo sapiens
T-47D = experiment: NCI60 one-dose screen; settings: Homo sapiens, T47D, read-out: Growth percent
MDA-MB-468 = experiment: NCI60 one-dose screen; settings: Homo sapiens
[17] = tested on: 60 human tumor cell lines (NCI60); experiment: NCI60 one-dose screen, overall mean; settings: for activity at 10 µM: Homo sapiens, read-out: Mean growth percent
CCRF-CEM = experiment: NCI60 five-dose screen; settings: Homo sapiens, Leukemia, five-dose, read-out: GI50

## CC[C@]12C=CCN3CC[C@@]4(c5ccc(OC)cc5N(C)[C@H]4[C@@](O)(C(=O)OC)[C@@H]1OC(=O)CCCC[P+](c1ccc(OC)cc1)(c1ccc(OC)cc1)c1ccc(OC)cc1)[C@@H]32 [10b]
MOLT-4; MOLT-4
  GI50: 1180 nM
RPMI-8226; RPMI-8226
  GI50: 299 nM
HOP-92; HOP-92
  GI50: 520 nM
NCI-H226 [1]; NCI-H226
  GI50: 2030 nM
NCI-H460; NCI-H460
  GI50: 1150 nM
COLO 205; COLO 205
  GI50: 214 nM
HCC-2998; HCC 2998
  GI50: 617 nM
HT29 [2]
  GI50: 511 nM
SW-620; SW-620
  GI50: 1060 nM
UACC-62; UACC-62
  GI50: 963 nM
OVCAR-4; OVCAR-4
  GI50: 1570 nM
OVCAR-5 [3]; OVCAR-5
  GI50: 2130 nM
786-0; 786-0
  GI50: 2590 nM
A498 [4]; A498
  GI50: 2930 nM
CAKI-1 [5]; CAKI-1
  GI50: 15200 nM
RXF 393 [6]; RXF 393
  GI50: 524 nM
DU-145 [7]; DU-145
  GI50: 16000 nM
HS 578T; Hs-578T
  GI50: 1510 nM
BT-549 [8]; BT-549
  GI50: 1250 nM
CNS Cancer panel; read-out: GI50 Mean
  GI50: 1170 nM
Breast Cancer panel; read-out: GI50 Mean
  GI50: 700 nM
HL-60(TB); HL-60, read-out: Growth percent
  activity at 10 µM: -45.2%
EKVX
  activity at 10 µM: -59.7%
HOP-62; HOP-62, read-out: Growth percent
  activity at 10 µM: -80.8%
NCI-H226 [9]; NCI-H226, read-out: Growth percent
  activity at 10 µM: -63.6%
HCT-116; HCT-116, read-out: Growth percent
  activity at 10 µM: -94.9%
HCT-15; HCT-15, read-out: Growth percent
  activity at 10 µM: -5.69%
HT29 [10]; HT-29, read-out: Growth percent
  activity at 10 µM: -63.1%
U251; U-251, read-out: Growth percent
  activity at 10 µM: -95.9%
LOX IMVI
  activity at 10 µM: -96.4%
OVCAR-3; OVCAR-3, read-out: Growth percent
  activity at 10 µM: -71.8%
OVCAR-5 [11]
  activity at 10 µM: -98.6%
NCI/ADR-RES
  activity at 10 µM: 84.3%
A498 [12]; A498, read-out: Growth percent
  activity at 10 µM: -54.7%
ACHN
  activity at 10 µM: -49.2%
CAKI-1 [13]; CAKI-1, read-out: Growth percent
  activity at 10 µM: -78.5%
RXF 393 [14]; RXF 393, read-out: Growth percent
  activity at 10 µM: -90.4%
UO-31; UO-31, read-out: Growth percent
  activity at 10 µM: 15.5%
PC-3; PC-3, read-out: Growth percent
  activity at 10 µM: -37.2%
DU-145 [15]; DU-145, read-out: Growth percent
  activity at 10 µM: -58.2%
MDA-MB-231/ATCC; MDA-MB-231, read-out: Growth percent
  activity at 10 µM: -97.4%
BT-549 [16]; BT-549, read-out: Growth percent
  activity at 10 µM: -96.7%
T-47D
  activity at 10 µM: -46.6%
MDA-MB-468; MDA-MB-468, read-out: Growth percent
  activity at 10 µM: -92.7%
[17]; 60 cell
  activity at 10 µM: -70.4%
[17]; one-dose, 10 µM, average over cell lines
  average reduction / average cell death: more than 70%

## CC[C@]12C=CCN3CC[C@@]4(c5ccc(OC)cc5N(C)[C@H]4[C@@](O)(C(=O)OC)[C@@H]1OC(=O)CCC[P+](c1ccccc1)(c1ccccc1)c1ccccc1)[C@@H]32 [compound 3, reference compound]
CCRF-CEM
  GI50: 487 nM
MOLT-4; MOLT-4, Leukemia, five-dose, read-out: GI50
  GI50: 614 nM
RPMI-8226; RPMI-8226, Leukemia, five-dose, read-out: GI50
  GI50: 219 nM
HOP-92; HOP-92, Non-small Cell Lung Cancer, five-dose, read-out: GI50
  GI50: 66 nM
NCI-H226 [1]; NCI-H226, Non-small Cell Lung Cancer, five-dose, read-out: GI50
  GI50: 2040 nM
NCI-H460; NCI-H460, Non-small Cell Lung Cancer, five-dose, read-out: GI50
  GI50: 1220 nM
COLO 205; COLO 205, COLO 205, Colon Cancer, five-dose, read-out: GI50
  GI50: 161 nM
HCC-2998; HCC-2998, Colon Cancer, five-dose, read-out: GI50
  GI50: 436 nM
HT29 [2]; HT29, Colon Cancer, five-dose, read-out: GI50
  GI50: 266 nM
SW-620; SW-620, Colon Cancer, five-dose, read-out: GI50
  GI50: 1200 nM
UACC-62; UACC-62, Melanoma, five-dose, read-out: GI50
  GI50: 222 nM
OVCAR-4; OVCAR-4, Ovarian Cancer, five-dose, read-out: GI50
  GI50: 469 nM
OVCAR-5 [3]; OVCAR-5, Ovarian Cancer, five-dose, read-out: GI50
  GI50: 1200 nM
786-0; 786-0, Renal Cancer, five-dose, read-out: GI50
  GI50: 2740 nM
A498 [4]; A498, Renal Cancer, five-dose, read-out: GI50
  GI50: 1710 nM
CAKI-1 [5]; CAKI-1, Renal Cancer, five-dose, read-out: GI50
  GI50: 5570 nM
RXF 393 [6]; RXF 393, Renal Cancer, five-dose, read-out: GI50
  GI50: 705 nM
DU-145 [7]; DU-145, Prostate Cancer, five-dose, read-out: GI50
  GI50: 1070 nM
HS 578T; HS 578T, Breast Cancer, five-dose, read-out: GI50
  GI50: 1260 nM
BT-549 [8]; BT-549, Breast Cancer, five-dose, read-out: GI50
  GI50: 380 nM
CNS Cancer panel; mean over CNS Cancer panel, read-out: Mean GI50
  GI50: 760 nM
Breast Cancer panel; mean over Breast Cancer panel, read-out: Mean GI50
  GI50: 450 nM
HL-60(TB); HL-60(TB), 10 μM, one-dose, read-out: Growth percent
  activity at 10 µM: -53.1%
EKVX; 10 μM, one-dose
  activity at 10 µM: 10.3%
HOP-62; HOP-62, 10 μM, one-dose, read-out: Growth percent
  activity at 10 µM: 2.56%
NCI-H226 [9]; NCI-H226, 10 μM, one-dose, read-out: Growth percent
  activity at 10 µM: 14%
HCT-116; HCT-116, 10 μM, one-dose, read-out: Growth percent
  activity at 10 µM: 8.72%
HCT-15; HCT-15, 10 μM, one-dose, read-out: Growth percent
  activity at 10 µM: 101%
HT29 [10]; HT-29, HT29, 10 μM, one-dose, read-out: Growth percent
  activity at 10 µM: 2.42%
U251; U-251, U251, 10 μM, one-dose, read-out: Growth percent
  activity at 10 µM: 4.03%
LOX IMVI; 10 μM, one-dose
  activity at 10 µM: 8.81%
OVCAR-3; OVCAR-3, 10 μM, one-dose, read-out: Growth percent
  activity at 10 µM: -2.49%
NCI/ADR-RES; 10 μM, one-dose
  activity at 10 µM: 100%
A498 [12]; A498, 10 μM, one-dose, read-out: Growth percent
  activity at 10 µM: 124%
ACHN; 10 μM, one-dose
  activity at 10 µM: 89.9%
CAKI-1 [13]; CAKI-1, 10 μM, one-dose, read-out: Growth percent
  activity at 10 µM: 52.2%
RXF 393 [14]; RXF 393, 10 μM, one-dose, read-out: Growth percent
  activity at 10 µM: 28.9%
UO-31; UO-31, 10 μM, one-dose, read-out: Growth percent
  activity at 10 µM: 80%
PC-3; PC-3, 10 μM, one-dose, read-out: Growth percent
  activity at 10 µM: 2.13%
DU-145 [15]; DU-145, 10 μM, one-dose, read-out: Growth percent
  activity at 10 µM: 18%
MDA-MB-231/ATCC; MDA-MB-231/ATCC, 10 μM, one-dose, read-out: Growth percent
  activity at 10 µM: 1.29%
BT-549 [16]; BT-549, 10 μM, one-dose, read-out: Growth percent
  activity at 10 µM: 11%
T-47D; T-47D, 10 μM, one-dose
  activity at 10 µM: 1.08%
MDA-MB-468; MDA-MB-468, 10 μM, one-dose, read-out: Growth percent
  activity at 10 µM: -75.6%
[17]; mean over 60 cell lines, 10 μM, one-dose
  activity at 10 µM: 3.13%
